Results reported in patent publication US20050209157A1, “Short bioactive peptides and methods for their use” (priority 2001, published 2005).
Several values for one entry are separate records, joined by “and”; a condition that tells them apart may be missing. Equal entries are not always repeated. Where two headings read alike, the source gives them in different places. No end group written: not given here.

How the values were obtained:
[1] = system: Pseudomonas aeruginosa 105663; type: cell-based; settings: Table 9; in µg/mL
[2] = system: Pseudomonas aeruginosa H187; type: cell-based; settings: in µg/mL
[3] = system: Pseudomonas aeruginosa 100609; type: cell-based; settings: Table 9; in µg/mL
P. aeruginosa H374 [4] = type: cell-based, Pseudomonas aeruginosa; settings: for MIC P. aeruginosa H374: in µg/mL
S. epidermidis C621 = type: cell-based, Staphylococcus epidermidis; settings: for S. epidermidis C621 MIC: mean of three, 16 to 20 hours at 35° C.
S. pneumoniae C718 = experiment: Antimicrobial assays II, NCCLS broth microdilution MIC; type: cell-based, Streptococcus pneumoniae; settings: mean of three
S. pyogenes M76 = experiment: as above; type: cell-based, Streptococcus pyogenes; settings: mean of three; 16 to 20 hours at 35° C.
S. aureus (MRSA) = type: cell-based, Staphylococcus aureus; settings: for S. aureus (MRSA) MIC: mean of three, 16 to 20 hours at 35° C.
S. pneumoniae C719 = experiment: Antimicrobial assays II, NCCLS broth microdilution MIC; type: cell-based, Streptococcus pneumoniae; settings: mean of three, in µg/mL
PC3 = experiment: Anti-cancer assay, MTT, LD50; type: cell-based; settings: 24 hours with peptide, prostate adenocarcinoma
Text: (§1) Numbers are LD50 values (μg/mL).

BMKC = experiment: Anti-cancer assay, MTT, LD50; type: cell-based; settings: BMKC cloned melanoma line, 24 hours with peptide
Text: as §1

SW480 = experiment: Anti-cancer assay, MTT, LD50; type: cell-based; settings: SW480 colon adenocarcinoma line, 24 hours with peptide
Text: as §1

HeLaS3 = experiment: Anti-cancer assay, MTT, LD50; type: cell-based; settings: 24 hours with peptide, cervical carcinoma
Text: as §1

MCF7 = experiment: Anti-cancer assay, MTT, LD50; type: cell-based; settings: MCF7 breast adenocarcinoma line, MTT, 24 hours with peptide
Text: as §1

H1299 = experiment: Anti-cancer assay, MTT, LD50; type: cell-based; settings: 24 hours with peptide, lung large cell carcinoma
Text: as §1

in vitro [5] = type: cell-based, human; settings: human, human red blood cells, pH 7, hemolytic assay, concentration at 50% hemolysis, 1 hour at 37° C.; read-out: LD50
S. pyogenes ATCC19615 = experiment: Antimicrobial assays II, NCCLS broth microdilution MIC; type: cell-based, Streptococcus pyogenes; settings: mean of three, in µg/mL
WI38 = settings: MTT, 24 hours with peptide; normal fibroblast line
P. aeruginosa H774 = type: cell-based, Pseudomonas aeruginosa; settings: P. aeruginosa H744; nalidixic acid + peptide at ¼ MIC; 0.5 or less = synergy
Procedure, shortened: (§2)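 FIC index, computed as 0.25 plus the ratio of combination to single-agent antibiotic MIC, defines synergy when 0.5 or below. Peptide fixed at one quarter MIC while chloramphenicol or nalidixic acid was serially diluted two-fold; antibiotic-alone MICs served as baselines.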

P. aeruginosa = type: cell-based, Pseudomonas aeruginosa; settings: P. aeruginosa H744; MIC of nalidixic acid with peptide at ¼ MIC
Procedure, shortened: as §2

P. aeruginosa H374 [6] = type: cell-based, Pseudomonas aeruginosa; settings: for MIC Cm-comb.: MIC of chloramphenicol with peptide at ¼ MIC; for MIC Nal-comb.: MIC of nalidixic acid with peptide at ¼ MIC; for FIC Index: 0.5 or less = synergy
Procedure, shortened: as §2

S. typhimurium 14028S = type: cell-based, Salmonella typhimurium
E. coli UB1005 = type: cell-based, Escherichia coli
[7] = system: Pseudomonas aeruginosa ATCC 9027; experiment: Antimicrobial assay I, MIC by OD measurement; type: cell-based; settings: 37° C. for 24 hours, absorbance 620 nm
[8] = system: Staphylococcus aureus ATCC 6538; experiment: Antimicrobial assay I, MIC by OD measurement; type: cell-based; settings: 37° C. for 24 hours, absorbance 620 nm
in vitro [9] = settings: human, WI38 normal lung fibroblast cells, LD50 WI38, WI38 normal lung fibroblast line, MTT, 24 hours with peptide
[10] = system: yeast (Saccharomyces cerevisiae); experiment: Antimicrobial assay I, yeast assay in RPMI 1640; type: cell-based; settings: RPMI 1640 media
Candida albicans 105 = type: cell-based; settings: Table 13; in µg/mL
[11] = system: Candida glabrata ATCC15126; experiment: Antimicrobial assays II, NCCLS broth microdilution MIC; type: cell-based; settings: Table 13; in µg/mL
[12] = chloramphenicol + peptide at ¼ MIC
[13] = nalidixic acid + peptide at ¼ MIC, FIC=0.25+MIC comb/MIC alone
[14] = mean of three, 16 to 20 hours at 35° C., in µg/mL

Molecule | S. epidermidis C621 MIC (S. epidermidis C621) | S. pneumoniae MIC (S. pneumoniae C718) | S. pyogenes M76 MIC (S. pyogenes M76) | S. aureus (MRSA) MIC (S. aureus (MRSA)) | S. pneumoniae MIC (S. pneumoniae C719) | PC3 LD50 (PC3) | LD50 BMKC (BMKC) | LD50 SW480 (SW480) | HeLaS3 LD50 (HeLaS3) | LD50 MCF7 (MCF7) | H1299 LD50 (H1299) | HC50 at 1 h (in vitro [5]) | S. pyogenes MIC (S. pyogenes ATCC19615) | WI38 LD50 (WI38) | FIC Index (P. aeruginosa H774) | MIC Nal-comb. (P. aeruginosa) | paerug9027 (MIC) [7] | staph6538 (MIC) [8] | CC50 at 24 h (in vitro [9]) | yeast (MIC or MFC) [10] | also measured
FALALKALKKALKKLKKALKKAL-NH2 [P2 (2)] |  |  |  |  |  |  |  |  |  |  |  |  |  |  |  |  |  |  |  |  | MIC P. aeruginosa Tb 105663 [1]: 16; MIC P. aeruginosa H187 ([2]; Table 9): 16; MIC P. aeruginosa Tb 100609 [3]: 32; MIC P. aeruginosa H374 (P. aeruginosa H374 [4]; Table 9): 16
CC[C@H](C)[C@H](N)C(=O)N[C@@H](CC(C)C)C(=O)N1CCC[C@H]1C(=O)N[C@@H](Cc1c[nH]c2ccccc12)C(=O)N[C@@H](CCCCN)C(=O)N[C@@H](Cc1c[nH]c2ccccc12)C(=O)N1CCC[C@H]1C(=O)N[C@@H](Cc1c[nH]c2ccccc12)C(=O)N[C@@H](Cc1c[nH]c2ccccc12)C(=O)N1CCC[C@H]1C(=O)N[C@@H](Cc1c[nH]c2ccccc12)C(=O)N[C@@H](CCCNC(=N)N)C(=O)N[C@@H](CCCNC(=N)N)C(N)=O [P63, reference compound] | 16 µg/mL | 128 µg/mL | 8 µg/mL | 32 µg/mL | 16 | 290 µg/mL | 200 µg/mL | 345 µg/mL | 345 µg/mL | 64 µg/mL | 270 µg/mL | 375 µg/mL | 8 |  |  |  |  |  |  |  | 
FAKKLKKLAKLAKKL-NH2 [P46] | 8 µg/mL | 64 µg/mL | 8 µg/mL | 64 µg/mL | 128 | 280 µg/mL | 150 µg/mL | 160 µg/mL | 280 µg/mL | 300 µg/mL | 290 µg/mL | 900 µg/mL | 16 | 200 µg/mL | 1.25 | 624 µg/mL | 5 µg/mL | 10 µg/mL | 200 µg/mL | 50 µg/mL | MIC Cm-comb. (P. aeruginosa H374 [6]): 8 µg/mL; MIC Nal-comb. (P. aeruginosa H374 [6]): 2500 µg/mL; FIC Index (P. aeruginosa H374 [6]; [12]): 0.75; FIC Index (P. aeruginosa H374 [6]; [13]): 0.75; S. typhimurium 14028S MIC (S. typhimurium 14028S; [14]): 16 and 8; E. coli UB1005 MIC (E. coli UB1005; [14]): 8 and 4; P. aeruginosa H374 MIC (P. aeruginosa H374 [4]; mean of three, 16 to 20 hours at 35° C.): 4 µg/mL
FAKKFAKKFKKFAKKFAKFAFAF-NH2 [P301 (147)] |  |  |  |  |  |  |  |  |  |  |  |  |  |  |  |  |  |  |  |  | MIC S. epidermis C621 (S. epidermidis C621; Table 13, in µg/mL): 4; MIC S. typhimurium 14028S (S. typhimurium 14028S; Table 12): 8 µg/mL; MIC C. albicans 105 (Candida albicans 105): 32; MIC E. coli UB1005 (E. coli UB1005; Table 12): 8 µg/mL; MIC P. aeruginosa H187 ([2]; Table 12): 8; MIC S. aureus SAP0017 (S. aureus (MRSA); Table 13, strain SAP0017, in µg/mL): 8; MIC P. aeruginosa H374 (P. aeruginosa H374 [4]; Table 12): 4; MIC C. glabrata ATCC15126 [11]: 32
FAKLLAKLAKKL-NH2 [P49] | 8 µg/mL | 64 µg/mL | 8 µg/mL | 64 µg/mL | 32 | 77 µg/mL | 115 µg/mL | 100 µg/mL |  | 40 µg/mL | 140 µg/mL | 225 µg/mL | 8 | 135 µg/mL | 1.25 | 624 µg/mL | 200 µg/mL | 10 µg/mL | 135 µg/mL | 50 µg/mL | MIC Cm-comb. (P. aeruginosa H374 [6]): 8 µg/mL; MIC Nal-comb. (P. aeruginosa H374 [6]): 2500 µg/mL; FIC Index (P. aeruginosa H374 [6]; [12]): 0.75; FIC Index (P. aeruginosa H374 [6]; [13]): 0.75
FAKLLAKLAKKAL-NH2 [P54, FAKLLAKLAKKAL-NH2] | 8 µg/mL | 64 µg/mL | 8 µg/mL | 16 µg/mL | 64 | 90 µg/mL | 90 µg/mL |  | 190 µg/mL | 60 µg/mL | 80 µg/mL | 250 µg/mL | 8 | 97 µg/mL | 1.25 | 624 µg/mL | 50 µg/mL | 5 µg/mL | 97 µg/mL | 50 µg/mL | MIC Cm-comb. (P. aeruginosa H374 [6]): 16 µg/mL; MIC Nal-comb. (P. aeruginosa H374 [6]): 5000 µg/mL; FIC Index (P. aeruginosa H374 [6]; [12]): 1.25; FIC Index (P. aeruginosa H374 [6]; [13]): 1.25
FALALKALKKALKKLKKALKKAL-NH2 [P2, reference compound] | 8 µg/mL | 128 µg/mL | 4 µg/mL | 32 µg/mL | 32 | 44 µg/mL | 128 µg/mL | 46 µg/mL | 50 µg/mL | 23 µg/mL | 140 µg/mL | 10 µg/mL | 8 | 66 µg/mL |  |  | 100 µg/mL | 25 µg/mL | 66 µg/mL | 25 µg/mL | 
